The target of test [1] is T1, GPX4 (Homo sapiens, UniProt P36969, U73C).
T1 sequence (P36969 33-197 U73C): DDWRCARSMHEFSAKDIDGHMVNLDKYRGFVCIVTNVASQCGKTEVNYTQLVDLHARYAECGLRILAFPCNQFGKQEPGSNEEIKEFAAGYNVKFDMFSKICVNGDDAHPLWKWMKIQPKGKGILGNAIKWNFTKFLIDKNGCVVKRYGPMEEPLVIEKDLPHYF
As to the kind of experiment: Microscale thermophoresis (MST) binding to GPX4. The note with it: Table 1. An excerpt:
(§1) Therefore, we applied a strategy of computer-facilitated design, based on MD simulation (Desmond) and Glide docking (Schrödinger Suite), and experimental high-throughput screening of a lead-optimized compound library of 10,000 compounds (FIGS. 6A-6E). All candidates were first evaluated by thermal denaturation assay and microscale thermophoresis (MST) to validate binding to GPX4 (Table 1). Surface plasmon resonance (SPR) and isothermal titration calorimetry (ITC) were then applied to precisely measure their binding kinetics and affinities, while ^1H-^15N heteronuclear single-quantum coherence (HSQC) NMR spectroscopy informed us of binding sites. We optimized two GPX4-specific activity assays to examine enzymatic inhibitory effects of hit compounds—LC-MS-based substrate/product monitoring and an NADPH-coupled assay. […] Some L880 analogues were also synthesized and tested (Table 2).
(In general: MST reads how a fluorescent partner responds to local heating, with and without ligand.)

Test [2] has as its target T1, GPX4. The experiment in a line: Surface plasmon resonance (SPR). The note with it: Table 1. It is filed as binding.
Source text: as §1, with “These x-ray structures enabled further optimization of current inhibitors and the design of novel inhibitors targeting various binding sites on GPX4. Therefore,” for “Therefore,”
In general terms: In SPR one partner is held on a chip, and binding of the other changes the refractive index at the surface.

The subject of test [3] is allCys(−) A66C GPX4 in G401 cells. The experiment in a line: Western blot GPX4 degradation study in G401. It is filed as cell-based. The note with it: 2 or 4 μM RSL3, 10 h, 10 μM Fer-1. On the procedure: For the GPX4 degradation study, G-401 cells were seeded at 800,000 per well in a 60-mm plate and allowed to adhere overnight. Cells were then treated with 10 μM Fer-1 and 0 (vehicle), 2 or 4 μM RSL3 for 10 h. Cells were harvested with trypsin (Invitrogen, 25200-114), pelleted, and lysed with RIPA buffer.
For the quantification of GPX4 protein level for cellular viability and GPX4-specific activity assay, each cell line subject to the cellular viability and GPX4-specific activity was tested by Western Blot in technical duplicates. In particular, cells were harvested with trypsin (Invitrogen, 25200-114), pelleted, and lysed by LCW lysis buffer (0.5% TritonX-100, 0.5% sodium deoxycholate salt, 150 mM NaCl, 20 mM Tris-HCl pH 7.5, 10 mM EDTA, 30 mM Na-pyrophosphate, and cOmplete protease inhibitor cocktail). While part of the cell lysates was blotted for protein quantification, the other part of lysates was used for the GPX4-specific activity assay. For both experiments, cell lysates were blotted and imaged as previously described (Yang et al. 2014). Antibodies used were GPX4 (Abcam, ab125066, 1:250 dilution) and actin (Cell Signaling, D18C11, 1:3,000 dilution). Results were quantified using a LI-COR Odyssey CLx IR scanner, ImageJ, and GraphPad Prism 9.
On the technique in general: In western blotting, separated proteins are transferred to a membrane and probed.

A further test has as its target T2, GPX4^U46C (Homo sapiens, UniProt P36969, U73C).
T2 construct: His6 (N, cleaved yes); made in house; host or cells: E. coli BL21-Gold (DE3), M9 minimal medium with 15NH4Cl
T2 sequence (P36969 33-197 U73C): T1 sequence (P36969 33-197 U73C)
As to the kind of experiment: Co-crystal structure of GPX4^U46C with inhibitor. It counts as binding. On the procedure: GPX4^U46C was pre-incubated with the covalent inhibitors before crystallization using the following specifically optimized condition.
RSL3 and ML162 condition: 50 μM GPX4^U46C incubated with 150 μM RSL3 or ML162 in the reaction buffer (20 mM Tris pH 9.0, 100 mM NaCl, 3 mM TCEP, 1.5% DMSO) at 15° C. for 1 hour before transferring to 4° C. overnight. CDS9 condition: 25 μM GPX4^U46C incubated with 2 mM CDS9 in the reaction buffer (100 mM Tris pH 9.0, 300 mM NaCl, 1 mM TCEP, 2% DMSO) at 37° C. for 2 hours before transferring to 4° C. overnight. TMT10 condition: 25 μM GPX4^U46C incubated with 2 mM TMT10 in the reaction buffer (100 mM Tris pH 9.0, 300 mM NaCl, 2% glycerol, 2% DMSO) at 37° C. for 4 hours before transferring to 4° C. overnight. MAC-5576 condition: 50 μM GPX4^U46C protein was incubated with 500 μM MAC-5576 in the reaction buffer (100 mM Tris pH 9.0, 300 mM NaCl, and 3 mM TCEP, 5% DMSO) at RT for 1 hour before transferring to 4° C. overnight.
After confirmation of covalent binding using intact protein MALDI MS analysis, the protein-inhibitor complex were exchanged into crystallization buffer (10 mM Tris pH 8.0, 5 mM TCEP) and concentrated to 5 mg/ml.

Turning to `COc1cccc2[nH]c(C(=O)n3ccnc3)cc12` [LOC1886], the MST entry at GPX4 [1] is given as “positive”. Besides, the Kd at GPX4 [1] (read-out: MST Kd) came to 100 µM. The SPR result on GPX4 [2] was “positive”.
In the case of `COC(=O)c1ccc([C@@H]2c3[nH]c4ccccc4c3C[C@@H](C(=O)OC)N2C(=O)CCl)cc1` [RSL3, (1S, 3R)-RSL3], the “RSL3-induced degradation of allCys(−) A66C GPX4” value in test [3] is recorded as “does-dependent degradation of allCys(−) A66C GPX4”. At GPX4^U46C, the “binding site in co-crystal structure” value is recorded as “bind to cys66”.

As usually defined, the Kd is a measure of binding affinity in units of concentration.
